Experiments:
[1] = tested on: peripheral blood CD4+ T cells; experiment: Apoptotic blood T cells from IBD patients receiving azathioprine/6-MP; assay type: in vivo, human; details: for number of apoptotic blood T cells: treated IBD patients vs untreated patients before therapy, cells stimulated with CD28 in culture, P<0.05
Description: FIG. 3. […] (a) LPMCs were isolated and stimulated with anti-CD2/CD28 plus IL-2 in the presence or absence of 6-MP for 5 days followed by FACS analysis. […] Data represent mean values±SEM from eight patients with IBD per group. […] Data are representative of 5-13 patients per group. Magnification, ×20 (bar=100 μm) (ce) and ×40 (bar=50 μm) (f-h). (i) Quantification of the percentage of apoptotic, TUNEL-positive LPMCs in patients with IBD receiving 6-MP as compared with untreated control patients. […] Data are mean values±SEM of 5-13 patients per group.
Isolation of primary CD4^+ T lymphocytes and lamina propria cells: Human peripheral blood mononuclear cells (PBMCs) from healthy volunteers (25-42 years of age) and patients with Crohn's disease (31-65 years of age) were isolated using Ficoll-Hypaque gradients. PBMCs were further purified using CD4 monoclonal antibodies attached to immunomagnetic beads according to the manufacturer's protocol, followed by treatment with Detachabead (Dynal; Oslo, Norway). In some cases, CD4^+ T cells were further separated by negative selection techniques using CD45RO or CD45RA monoclonal antibodies (PharMingen; Heidelberg, Germany) and immunomagnetic beads (Dynal). […] Lamina propria mononuclear cells (LPMCs) from patients with IBD were isolated from gut specimens using a short-term (5-minute) digestion protocol with collagenase V, hyaluronidase (Sigma-Aldrich; St. Louis, Mo., USA), and DNase (Roche; Mannheim, Germany), as recently described in detail in Holtmann et al., Eur. J. Immunol. 32:3142-3151 (2002). […]
For FACS analysis, apoptotic cells were detected by staining with annexin V and propidium iodide using the Annexin V FITC Apoptosis Detection Kit I (PharMingen) (Atreya et al., Nat. Med. 6:583-588 (2000)). […]

[2] = tested on: primary CD4+ T lymphocytes; experiment: T cell vitality and clonal expansion (trypan blue); assay type: cell-based, human
Experimental: Analysis of T cell vitality and clonal expansion: To induce T cell expansion, purified T lymphocytes were stimulated with coated antibodies to CD3 (0.04 μg/ml), soluble antibodies to CD28 (1 μg/ml), and recombinant IL-2 (40 U/ml) for the indicated periods of time. […] Cell viability was assessed by trypan blue (Sigma-Aldrich) staining at the beginning and at the end of the cell culture. The clonal expansion of T cells during cell culture was calculated by the ratio between cell numbers at the beginning and at the end of the cell culture.

[3] = tested on: primary CD4+ T lymphocytes; experiment: Annexin V/propidium iodide FACS apoptosis of stimulated primary blood CD4+ T lymphocytes; assay type: cell-based, human; details: for apoptosis induction during the first 2 days after administration: kinetic studies; for apoptosis of primary blood CD4+ T lymphocytes: day 5
Description: Isolation of primary CD4^+ T lymphocytes and lamina propria cells: Human peripheral blood mononuclear cells (PBMCs) from healthy volunteers (25-42 years of age) and patients with Crohn's disease (31-65 years of age) were isolated using Ficoll-Hypaque gradients. PBMCs were further purified using CD4 monoclonal antibodies attached to immunomagnetic beads according to the manufacturer's protocol, followed by treatment with Detachabead (Dynal; Oslo, Norway). In some cases, CD4^+ T cells were further separated by negative selection techniques using CD45RO or CD45RA monoclonal antibodies (PharMingen; Heidelberg, Germany) and immunomagnetic beads (Dynal). […] Lamina propria mononuclear cells (LPMCs) from patients with IBD were isolated from gut specimens using a short-term (5-minute) digestion protocol with collagenase V, hyaluronidase (Sigma-Aldrich; St. Louis, Mo., USA), and DNase (Roche; Mannheim, Germany), as recently described in detail in Holtmann et al., Eur. J. Immunol. 32:3142-3151 (2002). Briefly, specimens were washed in calcium- and magnesium-free HBSS (HBSS-CMF), cut into 0.5-cm pieces, and incubated twice in HBSS containing EDTA (0.37 mg/ml) and DTT (0.145 mg/ml) at 37° C. for 15 minutes, followed by subsequent digestion for 5 minutes with collagenase V 400 (1 mg/ml), deoxyribonuclease (0.1 mg/ml DNase), and hyaloronidase (0.1 mg/ml) in a shaking incubator at 37° C. The digested tissue was washed twice in RPMI medium containing 10% FCS and centrifuged. The tissue was finally mechanically homogenized (DAKO homogenizer; Hamburg, Germany) for 4 minutes, and cells were filtered through a sterile 40-μm cell strainer (Falcon; San Diego, Calif., USA).
Such CD28 costimulation is known to prevent apoptosis of primary T cells during T cell receptor (TCR) stimulation through activation of bcl-x, and NF-κB (Noel et al., J. Immunol. 157:636-647 (1996); Radvanyi et al., J. Immunol. 156:1788-1798 (1996); Khoshnan et al., J. Immunol. 165:1743-1754 (2000)). […] In addition, recombinant IL-2 (R&D Systems; Wiesbaden, Germany) was used at a final concentration of 40 U/ml in all experiments. Lamina propria T lymphocytes were stimulated with antibodies to CD2 (4 μg/ml; Immunotech; Marseille, France) and CD28 (1 μg/ml). […] To block CD95L-mediated (FasL-mediated) apoptosis, the NOK-1 antibody (4 μg/ml, PharMingen) was used whose Fab fragments bind to human CD95L (FasL) (Jodo et al., J. Immunol. 165:5487-5494 (2000)). Recombinant human FasL (Alexis Biochemicals; Heidelberg, Germany) was used as a positive control for the NOK-1 antibody (10 μg/ml).
For FACS analysis, apoptotic cells were detected by staining with annexin V and propidium iodide using the Annexin V FITC Apoptosis Detection Kit I (PharMingen) (Atreya et al., Nat. Med. 6:583-588 (2000)). In brief, T cells were washed twice in PBS, and the pellet was resuspended in annexin V binding buffer (PharMingen) at a concentration of 10^6 cells per milliliter. Annexin V FITC and propidium iodide were added (5 ill of each per 10^5 cells). Samples were gently mixed and incubated for 15 minutes at room temperature in the dark before FACS analysis. To verify the results obtained with the annexin V/propidium iodide staining, analysis of T cells displaying DNA fragmentation was also determined by the Nicoletti technique, as described in (Nicoletti et al., J. Immunol. Methods 139:271-279 (1991)). 10^6 T cells were fixed in 70% ethanol, washed once in HBSS, resuspended in 1 ml of HBSS and 1 ml of phosphate citric acid buffer (0.2 mol/l Na2PO4 and 0.004 mol/l citric acid [pH 7.8]), and incubated at room temperature for 5 minutes. After centrifugation, cells were resuspended in 1 ml of HBSS containing 20 μg/ml propidium iodide and 10 U DNase-free RNase A and incubated at room temperature for 30 minutes. Finally, cells were analyzed on a FACScan flow cytometer. Because of the fragmentation of DNA, apoptotic cells appear as hypodiploid in the DNA histogram.

[4] = stimulated through the TCR/CD3 complex plus CD28
[5] = stimulated with anti-CD3 antibodies alone

SMILES	further increase in percentage of apoptotic cells on additional 6-MP in vitro ([1]; T cells from 6-MP-treated patients)	number of apoptotic blood T cells [1]	clonal expansion of T cells ([2]; day 5)	apoptosis induction during the first 2 days after administration [3]	apoptosis of primary blood CD4+ T lymphocytes [3, 4]	apoptosis of primary blood CD4+ T lymphocytes [3, 5]	clonal expansion of T cells ([2]; earlier time points than day 5)	concentration at which T cell apoptosis occurred ([3]; FIGS. 1a and 1b) [µM]	apoptosis of already preactivated T lymphocytes ([3]; drug added at day 5, annexin V/propidium iodide at day 10)
Sc1ncnc2nc[nH]c12 [6-MP, 6-mercaptopurine]	did not cause a further significant increase	significant increase	suppresses clonal expansion	no apoptosis induction	induced apoptosis	no apoptosis	–	–	–
Cn1cnc([N+](=O)[O-])c1Sc1ncnc2nc[nH]c12 [azathioprine, Azathioprine]	–	significant increase	reduction in the clonal expansion	no apoptosis induction	induced apoptosis	no apoptosis	no significant changes	5	induced apoptosis

— US7524851B2 (Robert Bosch Gesellschaft fur Medizinische Forschung (RBMF), priority 2003, dated 2009)
